# Assay results from US20260007643A1, “HIGHLY SOLUBLE FORMULATIONS OF HARMINE” (Reconnect Labs AG, priority 2022, published 2026).
# Where two headings read alike, the source gives them in different places.
# Assays:
# [1] = Method: Thus, the present inventors performed an additional screening, in which different compositions of harmine were manufactured and their solubility in water was examined.
# To this end, in a first experiment 1 g of harmine freebase was added to […] of dH2O to yield a final concentration of 20% (w/w). Then, the acids mentioned above were individually added to the solution in different molar rations (e.g. 1:1 or 2:1) and it was examined, whether the acids can solubilize harmine freebase by protonation or complex formation.
# [2] = Blood plasma profiles of harmine and harmol in healthy volunteers; type: in vivo, Human; details: ~3.5 mg/kg
# [3] = Solubility testing of harmine salts (gravimetric, temperature-dependent); type: physicochemical; details: for solubility at 48 h: thermodynamic from solid; for Solubility compared with harmine hydrochloride: in words, data in water
# Method: Four 250 mL glass jacketed beakers are set up, which are connected with silicone hoses and connected to a Julabo F25 HE thermostat in order to be able to set a constant temperature. In the beakers there is a Pt100 sensor for temperature monitoring, a stopper with a hole that is sealed with play dough and a vial holder with space for four 4 ml vials for a quadruple determination of the solubility. The beakers are located on a strong magnetic stirrer plate so that the temperature is distributed as homogeneously as possible in the liquid medium. Water is used as the medium. The Pt100 sensors and the Julabo are connected to a measuring computer, which controls the Julabo and the temperatures of the Pt100 sensors can be read.
# A Sartorius LE26P microbalance with an accuracy of ±0.01 mg is used for the gravimetric determination of the solubility in mass percent.
# 4 ml vials are filled with 1-2 mL of the respective solvent and equipped with a stirring magnet. The solid to be measured is then added until it is supersaturated. The prepared vials are sealed and placed in the vial holder and equilibrated in the apparatus for 48 hours at the temperature to be examined. After 24 hours, an equilibrium between the solid and liquid phases should have been reached. The liquid phase is removed and transferred to a second vial via a Whatman 20 μm PTFE pre-syringe filter. The tools used, such as the pre-syringe filter, syringe and cannula, are initially cooled or heated to the temperature to be measured. The second vial is first empty, then weighed with the solution and finally evaporated again to ensure constant mass.
# At least when the data in water are considered. […] The solubilities are summarized in the table 14 below and in FIGS. 59 and 60: […]
# [4] = Polymorph and salt screening: stability and evaluation of solid state forms; type: physicochemical
# From the text: The form scNF1 was also created in the course of cooling crystallizations in water/acetone (70/30), (70/30), water/dioxane water/THF (70/30) and water/acetonitrile (70/30). In addition, the form scNF1 was created by gas diffusion crystallizations of water/1,4-dioxane, water/2-propanol and water/acetonitrile. In long-term slurries, scNF1 was successfully produced with acetone/water (80/20) and acetonitrile/water (90/10). Rapid precipitations of the form scNF1 with the antisolvent water are achieved with the solvents acetone and acetonitrile. Form scNF1 can also be crystallized by evaporating the solvent water.
# The form scNF1 is Harmine-HCl dihydrate, as could be determined by means of TGA after static storage (RT/100% RH for 7 days). […] A more detailed characterization of the form scNF1 was not requested by the client.
# In the course of the screening performed, 14 new solid-phases were detected by using XRPD.
# [5] = Solubility of harmine in the solvents used in the salt screening; type: physicochemical; details: for solubility: organic solvent or mixture
# Method: The drug substance Harmine was investigated for a salt screening of different salts by crystallization experiments from various solvents and grinding experiments. Solubility experiments were also conducted before starting the salt screening.
# In the following table 3, the different solvents used in the salt screening are summarized.
# [6] = first pKa value; cited from earlier work
# [7] = target: T1, monoamine oxidase B (MAO-B) (Homo sapiens, UniProt P27338); details: cited from earlier work
# T1 sequence (P27338 1-520): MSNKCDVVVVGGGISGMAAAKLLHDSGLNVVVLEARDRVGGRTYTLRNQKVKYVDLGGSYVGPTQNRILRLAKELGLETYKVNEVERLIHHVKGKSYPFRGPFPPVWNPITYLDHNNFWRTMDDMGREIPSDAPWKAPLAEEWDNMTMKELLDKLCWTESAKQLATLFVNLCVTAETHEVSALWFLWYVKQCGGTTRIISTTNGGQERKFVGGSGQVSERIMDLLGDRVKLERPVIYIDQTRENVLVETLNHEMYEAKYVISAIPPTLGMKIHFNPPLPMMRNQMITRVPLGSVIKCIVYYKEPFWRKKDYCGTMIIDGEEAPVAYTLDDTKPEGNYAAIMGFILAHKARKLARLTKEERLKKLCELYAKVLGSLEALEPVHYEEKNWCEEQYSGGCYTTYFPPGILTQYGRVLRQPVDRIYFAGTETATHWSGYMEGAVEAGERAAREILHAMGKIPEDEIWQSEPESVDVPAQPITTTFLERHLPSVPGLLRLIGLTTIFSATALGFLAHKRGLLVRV
# [8] = target: T2, monoamine oxidase A (MAO-A) (Homo sapiens, UniProt P21397); details: cited from earlier work
# T2 sequence (P21397 1-527): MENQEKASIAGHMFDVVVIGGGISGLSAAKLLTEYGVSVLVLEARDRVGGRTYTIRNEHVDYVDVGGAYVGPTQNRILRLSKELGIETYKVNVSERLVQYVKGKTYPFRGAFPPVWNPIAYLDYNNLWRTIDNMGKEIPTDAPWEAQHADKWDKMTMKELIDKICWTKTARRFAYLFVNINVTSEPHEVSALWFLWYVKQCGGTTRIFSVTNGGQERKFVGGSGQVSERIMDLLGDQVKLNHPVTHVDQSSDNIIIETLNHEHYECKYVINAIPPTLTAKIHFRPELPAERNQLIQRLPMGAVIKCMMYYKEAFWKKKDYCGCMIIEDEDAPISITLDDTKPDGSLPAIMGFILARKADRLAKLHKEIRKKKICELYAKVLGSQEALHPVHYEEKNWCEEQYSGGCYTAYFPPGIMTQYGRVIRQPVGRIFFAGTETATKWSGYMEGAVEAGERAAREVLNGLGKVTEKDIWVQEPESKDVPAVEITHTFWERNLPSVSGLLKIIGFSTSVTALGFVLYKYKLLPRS
# [9] = Dose-response study of DMT and harmine in healthy subjects: harmine PK profiles; details: 180 mg harmine with 90 mg DMT formulated in TIP, ODTs sublingual in 3 dosing intervals every 20 minutes, two subjects
# [10] = Solubility of harmine glucuronate for loading of TIP particles; type: physicochemical
# From the text: Loading harmine or its salt into TIP particles: FIG. 12 depicts SEM images of unsuccessful TIP loading with Harmine HCl (A; 1% in EtOH) and successful loadings with Harmine HCl (B; 0.1% in EtOH) and Harmine Glucuronate (C; 25% in H2O). As shown, TIP particles can be loaded with Harmine HCl, but only when using very low substance concentrations (0.1%) in an organic solvent such as EtOH. Loading with higher concentrations (1%) leads to external crystallization. Moreover, using H2O as solvent, triggers the rapid precipitation of HRM HCl as freebase, when it is exposed to basic residues within the TIP particles. […] Regarding the latter point, it could be shown that the loading process of the TIP particles is most efficient, when adding highly concentrated drug substance solutions (either in EtOH, H2O or DMSO) to the particles. Loading TIP particles with harmine glucuronate yielded exceptional results. […] It is thought that this property of HRM GLU is caused by its highly amorphous structure, leading to less crystallization compared to HRM HCl (which crystallizes readily as freebase, especially when exposed to basic residues within the TIP particles).
# Thus, harmine glucuronate is very practical to handle on a large scale (e.g. up to 1 Kg of HRM GLU can be dissolved in 1 L of water), yields very efficient loading of the TIP particles.
# [11] = pKa and solubility data of harmine and the acids used in the salt screening; type: physicochemical
# [12] = ethanol, organic solvent or mixture, EtOH, 25° C., read-out: Solubility at 25° C. (EtOH)
# [13] = ethanol, organic solvent or mixture, EtOH, 37° C., read-out: Solubility at 37° C. (EtOH)
# [14] = water, H2O, 25° C., read-out: Solubility at 25° C. (H2O)
# [15] = water, H2O, 37° C., read-out: Solubility at 37° C. (H20)
compound,measurement,setting,value
O=C(O)[C@H](O)[C@@H](O)[C@H](O)[C@H](O)CO [D-gluconic acid],Solubility of harmine with the acid,[1],higher than 15%
"COc1ccc2c(c1)[nH]c1c(C)nccc12.Cl [Harmine HCl, reference compound]",Cmax,"[2]; human, plasma, oral administration",~80 ng/mL
same,Harmine plasma level,"[2]; oral capsule, 10 healthy volunteers",~80 ng/mL
same,solubility at 48 h,[3]; [12],6.79 mg/mL
same,solubility at 48 h,[3]; [13],7.95 mg/mL
same,solubility at 48 h,[3]; [14],24.9 mg/mL
same,solubility at 48 h,[3]; [15],53.1 mg/mL
same,Solid form change on static storage,[4]; RT/100% RH for 7 days,converts to the form scNF1
COc1ccc2c(c1)[nH]c1c(C)nccc12.O=P(O)(O)O [Harmine Phosphate],solubility at 48 h,[3]; [12],0.58 mg/mL
same,solubility at 48 h,[3]; [13],0.55 mg/mL
same,Solubility compared with harmine hydrochloride,"[3]; listed as Harmine-Phosphate, Phosphate",do not show any better solubility properties
same,Solubility compared with harmine hydrochloride,"[3]; listed as harmine phosphate, Phosphate",significantly worse
same,solubility at 48 h,[3]; [14],11 mg/mL
same,solubility at 48 h,[3]; [15],12.9 mg/mL
same,Evaluation/Remarks: solubility in deuterated solvents,[4]; any deuterated solvent,Since the new form does not show sufficient solubility
"COc1ccc2c(c1)[nH]c1c(C)nccc12 [Harmine, 7-methoxy-1-methyl-9H-pyrido[3,4-b]-indole]",solubility,[5]; 2-picoline,10 mg/mL
same,Solubility in solvent,[5]; 95% methanol | 5% water,almost resolved
same,Anti-Solvent practically insoluble,"[5]; dimethyl carbonate, THF, acetonitrile, methanol, acetone, MEK, dichloromethane (25° C. | 45° C.), chloroform, 1,4-dioxane, water, veratrol, p-xylene, sulfolane, benzonitrile, 95% acetonitrile | 5% water (45° C.), 95% acetone | 5% water (45° C.)",practically insoluble
same,solubility,[5]; dimethyl sulfoxide (DMSO),13 mg/mL
same,solubility,"[5]; dimethylformamide (DMF), dimethylformamid (DMF), souble",33 mg/mL
same,solubility,"[5]; methanol, 45 °C",12 mg/mL
same,solubility,"[5]; 1-methyl-2-pyrrolidone (NMP), souble",80 mg/mL
same,solubility,"[5]; dimethylacetamide, souble",40 mg/mL
same,solubility,"[5]; tetramethylurea, souble",40 mg/mL
same,solubility,[5]; pyridine,205 mg/mL
same,pka (½),[6],7.45
same,Inhibition of MAO-B,[7],does not inhibit
same,Inhibition of MAO-A,[8],reversibly inhibits
COc1ccc2c(c1)[nH]c1c(C)nccc12.Cl.O.O [Harmine-HCl dihydrate],Solid form stability at ambient conditions,"[4]; after 5 weeks at ambient conditions, powder diffractogram",traces of Harmine-HCl were identified
O=C(O)[C@@H](O)[C@H](O)[C@H](O)[C@@H](O)C(=O)O [mucic acid],Ability of the acid to solubilize harmine freebase,[1],not able to solubilize harmine
D-glucuronic acid,Ability of the acid to solubilize harmine freebase,"[1]; 1 g harmine freebase in 5 g dH2O (20% w/w), acid added in molar ratios e.g. 1:1 or 2:1",highest solubility
Harmine Glucuronate,Bioavailability of harmine (plasma PK profiles),[9],bioavailable
same,Harmine concentration readily feasible in water,"[1]; harmine + equimolar glucuronic acid in deionized water, 1 g harmine in 5 mL final volume",> 20%
same,Gravimetric solubility relative to harmin hydrochloride,[3]; 25° C.,about eight times
same,Solubility at 25° C. (EtOH),"[3]; EtOH, 25° C.",4.25 mg/mL
same,Solubility at 37° C. (EtOH),"[3]; EtOH, 37° C.",7.93 mg/mL
same,Solubility at 25° C. (H2O),"[3]; H2O, 25° C.",405.95 mg/mL
same,Solubility at 37° C. (H20),"[3]; H2O, 37° C.",549.52 mg/mL
same,Solubility compared with harmine hydrochloride,[3],extremely improved solubility
same,Solubility in H2O,"[10]; H2O, RT",~45%
same,Amount that can be dissolved in 1 L of water,[10]; in 1 L of water,up to 1 Kg
same,ΔpKs value of harmine and glucuronic acid,[11],4.27
L(−)-Malic acid,ΔpKa,[11]; harmine pKa 7.45 versus first pKa of the acid,3.99
same,ΔpKa,[11]; harmine pKa 7.45 versus second pKa of the acid,2.35
